Reference: ChEMBL document CHEMBL4346757, “Synthesis and biological evaluation of 7-methoxy-1-(3,4,5-trimethoxyphenyl)-4,5-dihydro-2H-benzo[e]indazoles as new colchicine site inhibitors” (Bioorg Med Chem Lett, 2019)

What was measured:
Type in all cases: functional
SF-268 = experiment: Growth inhibition of human SF268 cells assessed as cell growth at 0.01 uM after 48 hrs by SRB assay relative to control; conditions: SF-268, 48 h, read-out: Activity
U-251 [1] = experiment: Growth inhibition of human U251 cells assessed as cell growth at 0.01 uM after 48 hrs by SRB assay relative to control; conditions: U-251, 48 h, read-out: Activity
SK-MEL-5 [2] = experiment: Growth inhibition of human SK-MEL-5 cells assessed as cell growth at 0.01 uM after 48 hrs by SRB assay relative to control; conditions: SK-MEL-5, 48 h, read-out: Activity
CAKI-1 = experiment: Growth inhibition of human Caki1 cells assessed as cell growth at 0.01 uM after 48 hrs by SRB assay relative to control; conditions: CAKI-1, 48 h, read-out: Activity
Malme-3M = experiment: Growth inhibition of human MALME-3M cells assessed as cell growth at 0.1 uM after 48 hrs by SRB assay relative to control; conditions: read-out: Activity
MCF7 = experiment: Growth inhibition of human MCF7 cells assessed as cell growth at 0.1 uM after 48 hrs by SRB assay relative to control; conditions: MCF7, 48 h, read-out: Activity
NCI-H460 = experiment: Growth inhibition of human NCI-H460 cells assessed as cell growth at 1 uM after 48 hrs by SRB assay relative to control; conditions: NCI-H460, 48 h, read-out: Activity
SF-295 = experiment: Growth inhibition of human SF295 cells assessed as cell growth at 1 uM after 48 hrs by SRB assay relative to control; conditions: SF-295, 48 h, read-out: Activity
U-251 [3] = experiment: Growth inhibition of human U251 cells assessed as cell growth at 1 uM after 48 hrs by SRB assay relative to control; conditions: U-251, 48 h, read-out: Activity
LOX IMVI [4] = experiment: Growth inhibition of human LOXIMVI cells assessed as cell growth at 1 uM after 48 hrs by SRB assay relative to control; conditions: read-out: Activity
OVCAR-5 [5] = experiment: Growth inhibition of human OVCAR5 cells assessed as cell growth at 1 uM after 48 hrs by SRB assay relative to control; conditions: OVCAR-5, 48 h, read-out: Activity
SN12C [6] = experiment: Growth inhibition of human SN12C cells assessed as cell growth at 1 uM after 48 hrs by SRB assay relative to control; conditions: read-out: Activity
MDA-MB-231 = experiment: Growth inhibition of human MDA-MB-231/ATCC cells assessed as cell growth at 1 uM after 48 hrs by SRB assay relative to control; conditions: MDA-MB-231, 48 h, read-out: Activity
BT-549 = experiment: Growth inhibition of human BT549 cells assessed as cell growth at 1 uM after 48 hrs by SRB assay relative to control; conditions: BT-549, 48 h, read-out: Activity
MOLT-4 [7] = experiment: Growth inhibition of human MOLT4 cells assessed as cell growth at 10 uM after 48 hrs by SRB assay relative to control; conditions: MOLT-4, 48 h, read-out: Activity
KM12 = experiment: Growth inhibition of human KM12 cells assessed as cell growth at 10 uM after 48 hrs by SRB assay relative to control; conditions: KM12, 48 h, read-out: Activity
OVCAR-5 [8] = experiment: Growth inhibition of human OVCAR5 cells assessed as cell growth at 10 uM after 48 hrs by SRB assay relative to control; conditions: OVCAR-5, 48 h, read-out: Activity
ACHN = experiment: Growth inhibition of human ACHN cells assessed as cell growth at 10 uM after 48 hrs by SRB assay relative to control; conditions: read-out: Activity
SN12C [9] = experiment: Growth inhibition of human SN12C cells assessed as cell growth at 10 uM after 48 hrs by SRB assay relative to control; conditions: read-out: Activity
HCC 2998 = experiment: Growth inhibition of human HCC2998 cells assessed as cell growth at 100 uM after 48 hrs by SRB assay relative to control; conditions: HCC 2998, 48 h, read-out: Activity
SW-620 = experiment: Growth inhibition of human SW620 cells assessed as cell growth at 100 uM after 48 hrs by SRB assay relative to control; conditions: SW-620, 48 h, read-out: Activity
SK-MEL-28 = experiment: Growth inhibition of human SK-MEL-28 cells assessed as cell growth at 100 uM after 48 hrs by SRB assay relative to control; conditions: SK-MEL-28, 48 h, read-out: Activity
OVCAR-5 [10] = experiment: Growth inhibition of human OVCAR5 cells assessed as cell growth at 100 uM after 48 hrs by SRB assay relative to control; conditions: OVCAR-5, 48 h, read-out: Activity
SK-OV-3 = experiment: Growth inhibition of human SKOV3 cells assessed as cell growth at 100 uM after 48 hrs by SRB assay relative to control; conditions: SK-OV-3, 48 h, read-out: Activity
MOLT-4 [11] = experiment: Cytotoxicity against human MOLT4 cells assessed as growth inhibition after 48 hrs by SRB assay; conditions: MOLT-4, 48 h
HCT-15 = experiment: Cytotoxicity against human HCT15 cells assessed as growth inhibition after 48 hrs by SRB assay; conditions: HCT-15, 48 h
LOX IMVI [12] = experiment: Cytotoxicity against human LOXIMVI cells assessed as growth inhibition after 48 hrs by SRB assay
SK-MEL-5 [13] = experiment: Cytotoxicity against human SK-MEL-5 cells assessed as growth inhibition after 48 hrs by SRB assay; conditions: SK-MEL-5, 48 h
SN12C [14] = experiment: Cytotoxicity against human SN12C cells assessed as growth inhibition after 48 hrs by SRB assay
[15] = read-out: LC50 (the source's name)
[16] = read-out: pLC50 (the source's name) (converted)

Structure (SMILES): COc1ccc2c(c1)CCc1n[nH]c(-c3cc(OC)c(OC)c(OC)c3)c1-2
- growth at 0.01 µM (SF-268): 39%
- growth at 0.01 µM (U-251 [1]): 14%
- growth at 0.01 µM (SK-MEL-5 [2]): -6%
- growth at 0.01 µM (CAKI-1): 30%
- growth at 0.1 µM (Malme-3M): 48%
- growth at 0.1 µM (MCF7): 14%
- growth at 1 µM (NCI-H460): 2%
- growth at 1 µM (SF-295): 5%
- growth at 1 µM (U-251 [3]): 8%
- growth at 1 µM (LOX IMVI [4]): 18%
- growth at 1 µM (OVCAR-5 [5]): 43%
- growth at 1 µM (SN12C [6]): 36%
- growth at 1 µM (MDA-MB-231): 29%
- growth at 1 µM (BT-549): 3%
- growth at 10 µM (MOLT-4 [7]): 31%
- growth at 10 µM (KM12): 6%
- growth at 10 µM (OVCAR-5 [8]): 31%
- growth at 10 µM (ACHN): 15%
- growth at 10 µM (SN12C [9]): 24%
- growth at 100 µM (HCC 2998): -80%
- growth at 100 µM (SW-620): -75%
- growth at 100 µM (SK-MEL-28): -66%
- growth at 100 µM (OVCAR-5 [10]): -22%
- growth at 100 µM (SK-OV-3): -50%
- GI50 (MOLT-4 [11]; read-out: GI50): < 10 nM
- CC50 (MOLT-4 [11]; [15]): > 100 µM
- TGI (MOLT-4 [11]; read-out: TGI): > 100 µM
- GI50 (MOLT-4 [11]; read-out: pGI50 (converted)): < 10 nM
- CC50 (MOLT-4 [11]; [16]): > 100 µM
- TGI (MOLT-4 [11]; read-out: pTGI): > 100 µM
- GI50 (HCT-15; read-out: GI50): < 10 nM
- CC50 (HCT-15; [15]): > 100 µM
- TGI (HCT-15; read-out: TGI): 11.8 µM
- GI50 (HCT-15; read-out: pGI50 (converted)): < 10 nM
- CC50 (HCT-15; [16]): > 100 µM
- TGI (HCT-15; read-out: pTGI (converted)): 11.7 µM
- GI50 (LOX IMVI [12]; read-out: GI50): < 10 nM
- CC50 (LOX IMVI [12]; [15]): 38.3 µM
- TGI (LOX IMVI [12]; read-out: TGI): 11.8 µM
- GI50 (LOX IMVI [12]; read-out: pGI50 (converted)): < 10 nM
- CC50 (LOX IMVI [12]; [16]): 38 µM
- TGI (LOX IMVI [12]; read-out: pTGI (converted)): 11.7 µM
- GI50 (SK-MEL-5 [13]; read-out: GI50): < 10 nM
- CC50 (SK-MEL-5 [13]; [15]): 24.2 µM
- TGI (SK-MEL-5 [13]; read-out: TGI): < 10 nM
- GI50 (SK-MEL-5 [13]; read-out: pGI50 (converted)): < 10 nM
- CC50 (SK-MEL-5 [13]; [16]): 24 µM
- TGI (SK-MEL-5 [13]; read-out: pTGI): < 10 nM
- GI50 (SN12C [14]; read-out: GI50): < 10 nM
- CC50 (SN12C [14]; [15]): > 100 µM
- TGI (SN12C [14]; read-out: TGI): 22 µM
- GI50 (SN12C [14]; read-out: pGI50 (converted)): < 10 nM
- CC50 (SN12C [14]; [16]): > 100 µM
- TGI (SN12C [14]; read-out: pTGI (converted)): 21.9 µM
